In patent publication US20200138827A1, “SMALL MOLECULE MODULATORS OF HUMAN STING” (Curadev Pharma Limited, priority 2017, published 2020):
pEC50: −log10 of the molar value. Where a name gives a salt, the structure may show the parent alone.

Molecular target: T1, WT/R232 STING protein (Homo sapiens, UniProt Q86WV6, H232R)
T1 construct: host or cells: HEK293T
Test: Luciferase reporter assay in HEK293T-hSTING-Luciferase cells, WT/R232
Assay type: cell-based
Conditions: 20 hr stimulation, read-out: R232 Activity (EC50 range)
Outline: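 […], read by luminescence from supernatant after 20 h compound stimulation. Cells: clonally selected HEK293T (5×10^5/well) stably carrying WT/R232 human STING and a luciferase reporter under five tandem ISREs fused to an ISG54 minimal promoter.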

T1 sequence (Q86WV6 whole entry H232R): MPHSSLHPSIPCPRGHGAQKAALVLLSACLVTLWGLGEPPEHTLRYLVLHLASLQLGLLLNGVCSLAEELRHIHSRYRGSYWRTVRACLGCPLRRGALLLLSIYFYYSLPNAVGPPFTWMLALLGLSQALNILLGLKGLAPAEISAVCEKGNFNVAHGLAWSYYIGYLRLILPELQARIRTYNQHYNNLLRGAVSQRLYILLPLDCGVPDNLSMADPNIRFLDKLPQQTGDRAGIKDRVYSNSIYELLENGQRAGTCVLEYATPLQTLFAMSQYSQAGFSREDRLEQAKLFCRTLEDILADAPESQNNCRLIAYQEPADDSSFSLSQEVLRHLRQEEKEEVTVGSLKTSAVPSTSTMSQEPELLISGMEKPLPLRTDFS

Row | Compound | pEC50
1 | O=C(NCc1ccc(F)cc1F)c1ccc2c(n1)N(Cc1ccc(F)cc1)C(=O)CC2 [Example 282, N-(2,4-difluorobenzyl)-8-(4-fluorobenzyl)-7-oxo-5,6,7,8-tetrahydro-1,8-naphthyridine-2-carboxamide] | 5.00 to 6.00
2 | O=C(CN1C(=O)CSc2ccc(C(=O)NCc3ccco3)cc21)Nc1ccncc1 [Example 4, N-(furan-2-ylmethyl)-3-oxo-4-(2-oxo-2-(pyridin-4-ylamino)ethyl)-3,4-dihydro-2H-benzo[b-1,4]-thiazine-6-carboxamide] | < 5.00
3 | O=C(NCc1cc2ncccc2o1)c1ccc2c(c1)N(Cc1cc(F)cc(F)c1)C(=O)CC2 [Example 275, 1-(3,5-difluorobenzyl)-N-(furo[3,2-b]pyridin-2-ylmethyl)-2-oxo-1,2,3,4-tetrahydroquinoline-7-carboxamide] | < 5.00
4 | NCc1cc(C(=O)NCc2c(F)cc(F)cc2F)cc2c1SCC(=O)N2Cc1ccc(F)cc1 [Example 224, 8-(aminomethyl)-4-(4-fluorobenzyl)-3-oxo-N-(2,4,6-trifluorobenzyl)-3,4-dihydro-2H-benzo[b][1,4] thiazine-6-carboxamide hydrochloride] | < 5.00
5 | Cn1cc(CNC(=O)c2ccc3c(c2)N(Cc2ccccc2)C(=O)CS3)cn1 [Example 121, 4-benzyl-N-((1-methyl-1H-pyrazol-4-yl)methyl)-3-oxo-3,4-dihydro-2H-benzo[b][1,4] thiazine-6-carboxamide] | < 5.00
6 | Cc1cc(C(=O)NCc2ccco2)cc2c1SCC(=O)N2Cc1ccccc1F [Example 226, 4-(2-Fluorobenzyl)-N-(furan-2-ylmethyl)-8-methyl-3-oxo-3,4-dihydro-2H-benzo[b-1,4]thiazine-6-carboxamide] | < 5.00
7 | O=C(NCc1ccco1)c1ccc2c(c1)N(CCc1cccc(C(F)(F)F)c1)C(=O)CS2 [Example 92, N-(furan-2-ylmethyl)-3-oxo-4-(3-(trifluoromethyl)phenethyl)-3,4-dihydro-2H-benzo[b-1,4]thiazine-6-carboxamide] | < 5.00
8 | CC1(CC(=O)O)Sc2ccc(C(=O)NCc3ccco3)cc2N(Cc2ccccc2F)C1=O (centres unmarked) [Example 139, 2-(4-(2-fluorobenzyl)-6-((furan-2-ylmethyl)carbamoyl)-2-methyl-3-oxo-3,4-dihydro-2H-benzo[b-1,4]thiazin-2-yl)acetic acid] | < 5.00
9 | O=C(NCc1ccco1)c1cc2c(cc1Br)SCC(=O)N2Cc1ccccc1F [Example 228, 7-bromo-4-(2-fluorobenzyl)-N-(furan-2-ylmethyl)-3-oxo-3,4-dihydro-2H-benzo[b][1,4]thiazine-6-carboxamide] | < 5.00
10 | O=C(NCc1ccco1)c1cnc2c(c1)N(Cc1c(F)cccc1Cl)C(=O)CS2 [Example 177, 1-(2-Chloro-6-fluorobenzyl)-N-(furan-2-ylmethyl)-2-oxo-2,3-dihydro-1H-pyrido[2,3-b-1,4]thiazine-7-carboxamide] | < 5.00
11 | O=C(NCc1ccccc1Cl)c1ccc2c(c1)N(Cc1cccc(Cl)c1)C(=O)CS2 [Example 124, N-(2-chlorobenzyl)-4-(3-chlorobenzyl)-3-oxo-3,4-dihydro-2H-benzo[b-1,4]thiazine-6-carboxamide] | < 5.00
12 | O=C(NCc1ccco1)c1cc(Br)c2c(c1)N(Cc1ccccc1F)C(=O)CS2 [Example 221, 8-bromo-4-(2-fluorobenzyl)-N-(furan-2-ylmethyl)-3-oxo-3,4-dihydro-2H-benzo[b-1,4]thiazine-6-carboxamide] | < 5.00
13 | Cc1noc(CN2C(=O)CSc3ccc(C(=O)NCc4ccco4)cc32)n1 [Example 84, N-(furan-2-ylmethyl)-4-((3-methyl-1,2,4-oxadiazol-5-yl)methyl)-3-oxo-3,4-dihydro-2H-benzo[b-1,4]thiazine-6-carboxamide] | < 5.00
14 | O=C(NCc1ccccc1)c1ccc2c(c1)N(Cc1c(F)cccc1Cl)C(=O)CS2 [Example 126, N-benzyl-4-(2-chloro-6-fluorobenzyl)-3-oxo-3,4-dihydro-2H-benzo[b-1,4]thiazine-6-carboxamide] | 5.00 to 6.00
15 | O=C(NCc1ccco1)c1ccc2c(c1)N(CCc1ccccc1)C(=O)CS2 [Example 8, N-(furan-2-ylmethyl)-3-oxo-4-phenethyl-3,4-dihydro-2H-benzo[b-1,4]thiazine-6-carboxamide] | < 5.00
16 | O=C(NCc1ccco1)c1ccc2c(c1)N(C(=O)c1ccccc1F)CCS2(=O)=O [Example 254, 4-(2-Fluorobenzoyl)-N-(furan-2-ylmethyl)-3,4-dihydro-2H-benzo[b-1,4]thiazine-6-carboxamide 1,1-dioxide] | < 5.00
17 | Nc1ncc(NC(=O)CN2C(=O)CSc3ccc(C(=O)NCc4ccco4)cc32)cn1 [Example 9, 4-(2-((2-amino-pyrimidin-5-yl)amino)-2-oxoethyl)-N-(furan-2-ylmethyl)-3-oxo-3,4-dihydro-2H-benzo[b-1,4]thiazine-6-carboxamide] | < 5.00
18 | CN(C)CC(NC(=O)c1ccc2c(c1)N(Cc1ccccc1)C(=O)CS2)c1ccccc1 (centres unmarked) [Example 53, 4-benzyl-N-(2-(dimethylamino)-1-phenylethyl)-3-oxo-3,4-dihydro-2H-benzo[b-1,4]thiazine-6-carboxamide] | < 5.00
19 | O=C(NCC1CC1)c1ccc2c(c1)N(Cc1ccccc1F)C(=O)CS2 [Example 20, N-(cyclopropyl-methyl)-4-(2-fluorobenzyl)-3-oxo-3,4-dihydro-2H-benzo[b-1,4]thiazine-6-carboxamide] | < 5.00
20 | CC1Sc2ncc(C(=O)NCc3cc4ccccc4o3)cc2N(Cc2cc(F)cc(F)c2)C1=O (centres unmarked) [Example 208, N-(benzofuran-2-ylmethyl)-1-(3,5-difluorobenzyl)-3-methyl-2-oxo-2,3-dihydro-1H-pyrido[2,3-b][1,4] thiazine-7-carboxamide] | < 5.00
21 | CC1Sc2ccc(C(=O)NCc3ccn(C)n3)cc2N(Cc2c(F)cccc2Cl)C1=O (centres unmarked) [Example 172, 4-(2-chloro-6-fluorobenzyl)-2-methyl-N-((1-methyl-1H-pyrazol-3-yl)methyl)-3-oxo-3,4-dihydro-2H-benzo[b] [1,4]thiazine-6-carboxamide] | < 5.00
22 | O=C(NCc1ccc(Cl)cc1)c1ccc2c(c1)N(Cc1ccccc1)C(=O)CS2 [Example 73, 4-benzyl-N-(4-chlorobenzyl)-3-oxo-3,4-dihydro-2H-benzo[b-1,4]thiazine-6-carboxamide] | 5.00 to 6.00
23 | CC(NC(=O)c1ccc2c(c1)N(Cc1ccccc1)C(=O)CS2)c1ccc(S(C)(=O)=O)cc1 (centres unmarked) [Example 57, 4-benzyl-N-(1-(4-(methylsulfonyl)phenyl)ethyl)-3-oxo-3,4-dihydro-2H-benzo[b-1,4]thiazine-6-carboxamide] | < 5.00
24 | N#CCC(CNC(=O)c1ccc2c(c1)N(Cc1c(F)cccc1Cl)C(=O)CS2)c1ccccc1 (centres unmarked) [Example 41, 4-(2-chloro-6-fluorobenzyl)-N-(3-cyano-2-phenylpropyl)-3-oxo-3,4-dihydro-2H-benzo[b-1,4]thiazine-6-carboxamide] | < 5.00
25 | O=C(NCc1ccco1)c1ccc2c(c1)N(CC1CCCCC1)C(=O)CS2 [Example 15, 4-(cyclohexyl-methyl)-N-(furan-2-ylmethyl)-3-oxo-3,4-dihydro-2H-benzo[b-1,4]thiazine-6-carboxamide] | < 5.00
26 | O=C(NCc1cc2cnccc2o1)c1ccc2c(c1)N(Cc1cc(F)cc(F)c1)C(=O)CC2 [Example 273, 1-(3,5-difluorobenzyl)-N-(furo[3,2-c]pyridin-2-ylmethyl)-2-oxo-1,2,3,4-tetrahydroquinoline-7-carboxamide] | < 5.00
